Assay results from US10106504B2, “Pyridin-3-yl acetic acid derivatives as inhibitors of human immunodeficiency virus replication” (priority 2015, dated 2018).

Tested on: NL-RLuc virus
Assay: Inhibition of HIV replication (NL-RLuc virus, luciferase readout in MT-2 cells)
Type: cell-based
Details: Human immunodeficiency virus 1, MT2, 120 h, read-out: Activity
Description: Inhibition of HIV Replication:
A recombinant NL-RLuc proviral clone was constructed in which a section of the nef gene from NL4-3 was replaced with the Renilla Luciferase gene. This virus is fully infectious and can undergo multiple cycles of replication in cell culture. In addition, the luciferous reporter provides a simple and easy method for quantitating the extent of virus growth and consequently, the antiviral activity of test compounds. The plasmid pNLRLuc contains the proviral NL-Rluc DNA cloned into pUC18 at the PvuII site. The NL-RLuc virus was prepared by transfection of 293T cells with the plasmid pNLRLuc. Transfections were performed using the LipofectAMINE PLUS kit from Invitrogen (Carlsbad, Calif.) according to the manufacturer and the virus generated was titered in MT-2 cells. For susceptibility analyses, the titrated virus was used to infect MT-2 cells in the presence of compound, and after 5 days of incubation, cells were processed and quantitated for virus growth by the amount of expressed luciferase. Assay media was RPMI 1640 supplemented with 10% heat inactivated fetal bovine serum (FBS), 100 units/ml penicillin G/100 units/ml streptomycin, 10 mM HEPES buffer pH 7.55 and 2 mM L-glutamine. The results from at least 2 experiments were used to calculate the EC50 values. Luciferase was quantitated using the Dual Luciferase kit from Promega (Madison, Wis.). Susceptibility of viruses to compounds was determined by incubation in the presence of serial dilutions of the compound. The 50% effective concentration (EC50) was calculated by using the exponential form of the median effect equation where (Fa)=1/[1+(ED50/drug conc.)^m] (Johnson V A, Byington R T. Infectivity Assay. In Techniques in HIV Research. ed. Aldovini A, Walker BD. 71-76. New York: Stockton Press. 1990). Activity equal to A refers to a compound having an EC50<100 nM, while B and C denote compounds having an EC50 between 100 nM and 1 uM (B) or >1 uM (C).

`Cc1cccc(F)c1CN1CCc2cc(-c3c(C)nc(C)c([C@H](OC(C)(C)C)C(=O)O)c3-c3cc(F)c4c(c3C)CCCO4)ccc2C1` [Example 39, (2S)-2-(tert-Butoxy)-2-(4-(8-fluoro-5-methylchroman-6-yl)-5-(2-(2-fluoro-6-methylbenzyl)-1,2,3,4-tetrahydroisoquinolin-6-yl)-2,6-dimethylpyridin-3-yl)acetic Acid] and `Cc1ccccc1CN1CCc2cc(-c3c(C)nc(C)c([C@H](OC(C)(C)C)C(=O)O)c3-c3cc(F)c4c(c3C)CCCO4)ccc2C1` [Example 40, (2S)-2-(tert-Butoxy)-2-(4-(8-fluoro-5-methylchroman-6-yl)-2,6-dimethyl-5-(2-(2-methylbenzyl)-1,2,3,4-tetrahydroisoquinolin-6-yl)pyridin-3-yl)acetic Acid] cannot be ordered by EC50: under 0.1 µM for the first, under 0.1 µM for the second.

`Cc1ccc(-c2c(-c3ccc4c(c3)CCN(Cc3c(C)cccc3F)C4)c(C)nc(C)c2[C@H](OC(C)(C)C)C(=O)O)cc1` [Example 41, (S)-2-(tert-Butoxy)-2-(5-(2-(2-fluoro-6-methylbenzyl)-1,2,3,4-tetrahydroisoquinolin-6-yl)-2,6-dimethyl-4-(p-tolyl)pyridin-3-yl)acetic Acid] and `Cc1ccc(-c2c(-c3ccc4c(c3)CCN(Cc3ccccc3F)C4)c(C)nc(C)c2[C@H](OC(C)(C)C)C(=O)O)cc1` [Example 42, (S)-2-(tert-Butoxy)-2-(5-(2-(2-fluorobenzyl)-1,2,3,4-tetrahydroisoquinolin-6-yl)-2,6-dimethyl-4-(p-tolyl)pyridin-3-yl)acetic Acid] cannot be ordered by EC50: under 0.1 µM for the first, under 0.1 µM for the second.

First: Cc1nc(C)c([C@H](OC(C)(C)C)C(=O)O)c(-c2ccc3c4c(ccnc24)CCO3)c1-c1ccc(OCCc2ccc(F)cc2)cc1 [Example 43, (2S)-2-(tert-Butoxy)-2-(4-(2,3-dihydropyrano[4,3,2-de]quinolin-7-yl)-5-(4-(4-fluorophenethoxy)phenyl)-2,6-dimethylpyridin-3-yl)acetic Acid]
Second: Cc1nc(C)c([C@H](OC(C)(C)C)C(=O)O)c(-c2cc(F)c3c(c2)CCCO3)c1-c1ccc(OCCc2ccc(F)cc2)cc1 [Example 48, (S)-2-(tert-Butoxy)-2-(4-(8-fluorochroman-6-yl)-5-(4-(4-fluorophenethoxy)phenyl)-2,6-dimethylpyridin-3-yl)acetic Acid]
The EC50 of the first is higher: 0.1 to 1 µM for the first, under 0.1 µM for the second. The second is the more potent here.

`Cc1nc(C)c([C@H](OC(C)(C)C)C(=O)O)c(-c2ccc3c(c2)CCCO3)c1-c1ccc(OCCc2ccc(F)cc2F)cc1` [Example 44, (S)-2-(tert-Butoxy)-2-(4-(chroman-6-yl)-5-(4-(2,4-difluorophenethoxy)phenyl)-2,6-dimethylpyridin-3-yl)acetic Acid] and `Cc1nc(C)c([C@H](OC(C)(C)C)C(=O)O)c(-c2ccc3c(c2)CCCO3)c1-c1ccc(OCCc2ccccc2F)cc1` [Example 45, (S)-2-(tert-Butoxy)-2-(4-(chroman-6-yl)-5-(4-(2-fluorophenethoxy)phenyl)-2,6-dimethylpyridin-3-yl)acetic Acid] cannot be ordered by EC50: under 0.1 µM for the first, under 0.1 µM for the second.

`Cc1nc(C)c([C@H](OC(C)(C)C)C(=O)O)c(C2=CCC(C)(C)CC2)c1-c1ccc(OCCc2ccc(F)cc2)cc1` [Example 46, (S)-2-(tert-Butoxy)-2-(4-(4,4-dimethylcyclohex-1-en-1-yl)-5-(4-(4-fluorophenethoxy)phenyl)-2,6-dimethylpyridin-3-yl)acetic Acid] and `Cc1nc(C)c([C@H](OC(C)(C)C)C(=O)O)c(-c2cc(F)c3c(c2)C=CCO3)c1-c1ccc(OCCc2ccc(F)cc2)cc1` [Example 47, (S)-2-(tert-Butoxy)-2-(4-(8-fluoro-2H-chromen-6-yl)-5-(4-(4-fluorophenethoxy)phenyl)-2,6-dimethylpyridin-3-yl)acetic Acid] cannot be ordered by EC50: under 0.1 µM for the first, under 0.1 µM for the second.

`Cc1cccc(F)c1CN1CCc2cc(-c3c(C)nc(C)c([C@H](OC(C)(C)C)C(=O)O)c3-c3cc(F)c4c(c3)CCCO4)ccc2C1` [Example 49, (S)-2-(tert-Butoxy)-2-(5-(2-(2-fluoro-6-methylbenzyl)-1,2,3,4-tetrahydroisoquinolin-6-yl)-4-(8-fluorochroman-6-yl)-2,6-dimethylpyridin-3-yl)acetic Acid] and `Cc1cccc(Cl)c1CN1CCc2cc(-c3c(C)nc(C)c([C@H](OC(C)(C)C)C(=O)O)c3-c3cc(F)c4c(c3)CCCO4)ccc2C1` [Example 51, (S)-2-(tert-Butoxy)-2-(5-(2-(2-chloro-6-methylbenzyl)-1,2,3,4-tetrahydroisoquinolin-6-yl)-4-(8-fluorochroman-6-yl)-2,6-dimethylpyridin-3-yl)acetic Acid] cannot be ordered by EC50: under 0.1 µM for the first, under 0.1 µM for the second.

`Cc1cc(F)ccc1CN1CCc2cc(-c3c(C)nc(C)c([C@H](OC(C)(C)C)C(=O)O)c3-c3cc(F)c4c(c3)CCCO4)ccc2C1` [Example 50, (S)-2-(tert-Butoxy)-2-(5-(2-(4-fluoro-2-methylbenzyl)-1,2,3,4-tetrahydroisoquinolin-6-yl)-4-(8-fluorochroman-6-yl)-2,6-dimethylpyridin-3-yl)acetic Acid] and `Cc1cc(F)ccc1CN1CCc2cc(-c3c(C)nc(C)c([C@H](OC(C)(C)C)C(=O)O)c3-c3ccc4c(c3)CCCO4)ccc2C1` [Example 56, (S)-2-(tert-Butoxy)-2-(4-(chroman-6-yl)-5-(2-(4-fluoro-2-methylbenzyl)-1,2,3,4-tetrahydroisoquinolin-6-yl)-2,6-dimethylpyridin-3-yl)acetic Acid] cannot be ordered by EC50: under 0.1 µM for the first, under 0.1 µM for the second.

`Cc1cc(N2CCc3cc(-c4c(C)nc(C)c([C@H](OC(C)(C)C)C(=O)O)c4-c4cc(F)c5c(c4)CCCO5)ccc3C2)ncn1` [Example 52, (S)-2-(tert-Butoxy)-2-(4-(8-fluorochroman-6-yl)-2,6-dimethyl-5-(2-(6-methylpyrimidin-4-yl)-1,2,3,4-tetrahydroisoquinolin-6-yl)pyridin-3-yl)acetic Acid] and `Cc1cc(N2CCc3cc(-c4c(C)nc(C)c([C@H](OC(C)(C)C)C(=O)O)c4-c4ccc5c(c4)CCCO5)ccc3C2)ncn1` [Example 55, (S)-2-(tert-Butoxy)-2-(4-(chroman-6-yl)-2,6-dimethyl-5-(2-(6-methylpyrimidin-4-yl)-1,2,3,4-tetrahydroisoquinolin-6-yl)pyridin-3-yl)acetic Acid] cannot be ordered by EC50: under 0.1 µM for the first, under 0.1 µM for the second.

`Cc1nc(C)c([C@H](OC(C)(C)C)C(=O)O)c(-c2cc(F)c3c(c2)CCCO3)c1-c1ccc2c(c1)CCN(c1ncnc3c1cnn3C)C2` [Example 53, (S)-2-(tert-Butoxy)-2-(4-(8-fluorochroman-6-yl)-2,6-dimethyl-5-(2-(1-methyl-1H-pyrazolo[3,4-d]pyrimidin-4-yl)-1,2,3,4-tetrahydroisoquinolin-6-yl)pyridin-3-yl)acetic Acid] and `Cc1nc(C)c([C@H](OC(C)(C)C)C(=O)O)c(-c2ccc3c(c2)CCCO3)c1-c1ccc2c(c1)CCN(c1ncnc3c1cnn3C)C2` [Example 54, (S)-2-(tert-Butoxy)-2-(4-(chroman-6-yl)-2,6-dimethyl-5-(2-(1-methyl-1H-pyrazolo[3,4-d]pyrimidin-4-yl)-1,2,3,4-tetrahydroisoquinolin-6-yl)pyridin-3-yl)acetic Acid] cannot be ordered by EC50: under 0.1 µM for the first, under 0.1 µM for the second.

Molecule `COc1nccc(N2CCc3cc(-c4c(C)nc(C)c([C@H](OC(C)(C)C)C(=O)O)c4-c4ccc5c(c4)CCCO5)ccc3C2)n1` [Example 57, (S)-2-(tert-Butoxy)-2-(4-(chroman-6-yl)-5-(2-(2-methoxypyrimidin-4-yl)-1,2,3,4-tetrahydroisoquinolin-6-yl)-2,6-dimethylpyridin-3-yl)acetic Acid] has an EC50 of under 0.1 µM.

Same assay, conditions: Human immunodeficiency virus 1, MT2, 120 h, read-out: EC50 μM

Going from `Cc1cccc(F)c1CN1CCc2cc(-c3c(C)nc(C)c([C@H](OC(C)(C)C)C(=O)O)c3-c3cc(F)c4c(c3C)CCCO4)ccc2C1` [Example 39, (2S)-2-(tert-Butoxy)-2-(4-(8-fluoro-5-methylchroman-6-yl)-5-(2-(2-fluoro-6-methylbenzyl)-1,2,3,4-tetrahydroisoquinolin-6-yl)-2,6-dimethylpyridin-3-yl)acetic Acid] to `Cc1nc(C)c([C@H](OC(C)(C)C)C(=O)O)c(-c2ccc3c(c2)CCCO3)c1-c1ccc2c(c1)CCN(c1ncnc3c1cnn3C)C2` [Example 54, (S)-2-(tert-Butoxy)-2-(4-(chroman-6-yl)-2,6-dimethyl-5-(2-(1-methyl-1H-pyrazolo[3,4-d]pyrimidin-4-yl)-1,2,3,4-tetrahydroisoquinolin-6-yl)pyridin-3-yl)acetic Acid], the EC50 falls from 0.024 µM to 0.008 µM (3-fold). The second is the more potent here.

Molecule `Cc1nc(C)c([C@H](OC(C)(C)C)C(=O)O)c(C2=CCC(C)(C)CC2)c1-c1ccc(OCCc2ccc(F)cc2)cc1` [Example 46, (S)-2-(tert-Butoxy)-2-(4-(4,4-dimethylcyclohex-1-en-1-yl)-5-(4-(4-fluorophenethoxy)phenyl)-2,6-dimethylpyridin-3-yl)acetic Acid] has an EC50 of 0.061 µM.
